Measured values published in patent publication US10954214B2 (Janssen Pharmaceutica NV, priority 2016, dated 2021).

Legend:
[1] = tested on: IL6 secretion by OCI-LY3 ABC-DLBCL cells; assay: Human IL6 Mesoscale assay (OCI-LY3); assay type: cell-based; settings: Homo sapiens, 24 h
Experimental: (§1) NFKB signaling regulates the secretion of multiple cytokines, including IL6 and IL10. Secretion of the cytokines IL6 and IL10 by TMD8 or OCI-LY3 ABC-DLBCL cells was measured using a mesoscale assay. Inhibition of NFKB signaling by MALT1 or BTK inhibitors results in a decrease of IL6/10 secretion.
(§2) TMD8 or OCI-LY3 cells were propagated in RPMI-1640 (Sigma Aldrich) supplemented with 10% fetal bovine serum (HyClone), 1 mM sodium pyruvate (Invitrogen), 2 mM L-glutamine (Sigma Aldrich) and 1% PenStrep (Sigma Aldrich). Cell passage number should not exceed 30. Cells should be kept between 0.5-2.5 million cells per mL during culturing and cells should be supplemented every 2-3 days with fresh 50 μM beta-mercaptoenthanol. No beta-mercaptoethanol was used during the mesoscale assay.
(§3) For the Mesoscale assay, 100,000 TMD8 or OCI-LY3 cells were seeded per well into black-colored 96-well plates with clear bottom (Corning #3904) and test compounds were added in 9 dilution steps (1:2) ranging from 15 μM to 58.6 nM (final DMSO concentration 0.3%). DMSO control wells were used to determine the maximum signal (High Control (HC)). Treatment with the BTK inhibitor RN486 in a dose range from 30 nM to 131 pM (9 dilutions of 1:2) served as a positive control for NFKB pathway inhibition and was used to determine the maximum inhibition (Low Control (LC)). Compounds and cells were incubated for 24 h at 37° C. and 5% CO2 (assay volume is 150 μL). After 24 h of incubation 50 μL of the supernatant was transferred to a MSD plate (V-Plex Proinflammation Panel 1 (human) kit, Mesoscale (MSD)) and incubated for 2 h with vigorous shaking (600 rpm) at room temperature. Following incubation, plates were washed 3× with PBS+0.05% Tween-20 and 25 μL detection antibody solution (IL6 & IL10 antibodies in diluent 3 (MSD)) was added per well followed by 2 h of incubation with vigorous shaking (600 rpm) at room temperature. After 3× washes with PBS+0.05% Tween-20, plates were incubated with 150 μL 2× Read Buffer T and read on SECTOR imager.

[2] = molecular target: full-length MALT1 protein (Strep-MALT1(1-824)-His) (Homo sapiens (Human), UniProt Q9UDY8); assay: MALT1 Biochemical Protease Assay (Ac-LRSR-AMC substrate); settings: 10 nM FL MALT1, 200 μM Ac-LRSR-AMC, 4 h at RT; read-out: MALT1_Biochemical activity (Ac-LRSR-amc) IC50
Outline: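 Fluorescence from AMC release off the quenched LRSR substrate was read after a 4 h reaction at RT. Values were normalised to no-enzyme and uninhibited controls and fitted for IC50 and Hill coefficient.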

[3] = tested on: IL10 secretion by OCI-LY3 ABC-DLBCL cells; assay: Human IL10 Mesoscale assay (OCI-LY3); assay type: cell-based; settings: Homo sapiens, 24 h
Experimental: as §1, §2, §3

Sequence of full-length MALT1 protein (Strep-MALT1(1-824)-His) (Q9UDY8 whole entry): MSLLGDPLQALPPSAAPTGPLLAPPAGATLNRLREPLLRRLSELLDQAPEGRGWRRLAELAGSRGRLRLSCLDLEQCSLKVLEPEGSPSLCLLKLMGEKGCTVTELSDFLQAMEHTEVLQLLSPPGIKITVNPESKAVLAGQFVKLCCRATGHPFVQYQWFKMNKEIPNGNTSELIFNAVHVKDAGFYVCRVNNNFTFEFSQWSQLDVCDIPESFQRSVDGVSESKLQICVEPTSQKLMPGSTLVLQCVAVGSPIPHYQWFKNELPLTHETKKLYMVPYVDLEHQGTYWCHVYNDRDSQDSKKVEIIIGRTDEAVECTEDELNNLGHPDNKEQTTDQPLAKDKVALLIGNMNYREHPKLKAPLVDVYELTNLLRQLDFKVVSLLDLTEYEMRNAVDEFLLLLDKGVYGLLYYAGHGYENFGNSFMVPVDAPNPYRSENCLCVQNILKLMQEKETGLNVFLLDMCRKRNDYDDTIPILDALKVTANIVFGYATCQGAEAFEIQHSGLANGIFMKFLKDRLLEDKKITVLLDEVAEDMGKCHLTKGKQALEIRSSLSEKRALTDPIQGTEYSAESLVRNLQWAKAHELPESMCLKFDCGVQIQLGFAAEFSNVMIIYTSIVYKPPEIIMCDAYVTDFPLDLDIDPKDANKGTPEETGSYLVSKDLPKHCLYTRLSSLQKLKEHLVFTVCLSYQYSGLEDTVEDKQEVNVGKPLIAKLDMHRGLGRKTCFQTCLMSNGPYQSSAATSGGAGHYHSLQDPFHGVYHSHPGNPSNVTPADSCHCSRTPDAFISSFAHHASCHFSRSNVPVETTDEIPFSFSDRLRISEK

| Structure (SMILES) | IC50 [1] | IC50 [2] | IC50 [3] |
| --- | --- | --- | --- |
| COCCOc1ncc(C(F)(F)F)cc1NC(=O)c1cnn(-c2cccc3c(=O)[nH]ccc23)c1C(F)(F)F [Cpd 357, N-(2-(2-methoxyethoxy)-5-(trifluoromethyl)pyridin-3-yl)-1-(1-oxo-1,2-dihydroisoquinolin-5-yl)-5-(trifluoromethyl)-1H-pyrazole-4-carboxamide] | 15 nM | 977 nM | 15 nM |
| O=C(Nc1ccnc(C(F)(F)F)c1)c1cnn(-c2cnc(N3CC(O)C3)c3sccc23)c1C(F)(F)F [Cpd 210, 1-(7-(3-hydroxyazetidin-1-yl)thieno[2,3-c]pyridin-4-yl)-5-(trifluoromethyl)-N-(2-(trifluoromethyl)pyridin-4-yl)-1H-pyrazole-4-carboxamide] | 417 nM | 72 nM | 380 nM |
| NC(=O)c1cn(-c2ncc(NC(=O)c3cnn(-c4cccc5ncccc45)c3C(F)(F)F)cc2Cl)nn1 [Cpd 246, 1-(3-chloro-5-(1-(quinolin-5-yl)-5-(trifluoromethyl)-1H-pyrazole-4-carboxamido)pyridin-2-yl)-1H-1,2,3-triazole-4-carboxamide] | 135 nM | 380 nM | 63 nM |
| CNC(=O)c1ncc(NC(=O)c2cnn(-c3cccc4c(=O)[nH]ccc34)c2C(F)(F)F)cc1Cl [Cpd 352, 3-chloro-N-methyl-5-(1-(1-oxo-1,2-dihydroisoquinolin-5-yl)-5-(trifluoromethyl)-1H-pyrazole-4-carboxamido)picolinamide] | 129 nM | 44 nM | 87 nM |
| Cc1nc(-c2ccn(C)n2)c(Cl)cc1NC(=O)c1cnn(-c2cnc(N)c3ccccc23)c1C(F)(F)F [Cpd 333, 1-(1-aminoisoquinolin-4-yl)-N-(5-chloro-2-methyl-6-(1-methyl-1H-pyrazol-3-yl)pyridin-3-yl)-5-(trifluoromethyl)-1H-pyrazole-4-carboxamide] | 155 nM | 245 nM | 123 nM |
| Cn1nc(-n2ncc(C(=O)Nc3cnc(-n4nccn4)c(C#N)c3)c2C(F)(F)F)c2ccccc21 [Cpd 266, N-(5-cyano-6-(2H-1,2,3-triazol-2-yl)pyridin-3-yl)-1-(1-methyl-1H-indazol-3-yl)-5-(trifluoromethyl)-1H-pyrazole-4-carboxamide] | 186 nM | 158 nM | 178 nM |
| O=C(Nc1cnc(-n2nc3ccncc3n2)c(Cl)c1)c1cnn(-c2cccc3ncccc23)c1C(F)(F)F [Cpd 162, N-(6-(2H-[1,2,3]triazolo[4,5-c]pyridin-2-yl)-5-chloropyridin-3-yl)-1-(quinolin-5-yl)-5-(trifluoromethyl)-1H-pyrazole-4-carboxamide] | 437 nM | 363 nM | 309 nM |
| O=C(Nc1cnc(-n2nccn2)c(Cl)c1)c1cnn(-c2cnc(N3CC[C@H](O)C3)c3sccc23)c1C(F)(F)F [Cpd 431, (S)—N-(5-chloro-6-(2H-1,2,3-triazol-2-yl)pyridin-3-yl)-1-(7-(3-hydroxypyrrolidin-1-yl)thieno[2,3-c]pyridin-4-yl)-5-(trifluoromethyl)-1H-pyrazole-4-carboxamide] | 117 nM | 17 nM | 95 nM |
| Cc1nc(-n2nccn2)c(Cl)cc1NC(=O)c1cnn(-c2cc(=O)[nH]c3ccccc23)c1C(F)(F)F [Cpd 358, N-(5-chloro-2-methyl-6-(2H-1,2,3-triazol-2-yl)pyridin-3-yl)-1-(2-oxo-1,2-dihydroquinolin-4-yl)-5-(trifluoromethyl)-1H-pyrazole-4-carboxamide] | 123 nM | 19 nM | 126 nM |
| N#Cc1ncc(NC(=O)c2cnn(-c3cccc4c(=O)[nH]ccc34)c2C(F)(F)F)cc1C(F)(F)F [Cpd 354, N-(6-cyano-5-(trifluoromethyl)pyridin-3-yl)-1-(1-oxo-1,2-dihydroisoquinolin-5-yl)-5-(trifluoromethyl)-1H-pyrazole-4-carboxamide] | 457 nM | 52 nM | 437 nM |
| CCOC(C)c1ncc(-n2ncc(C(=O)Nc3cnc(-n4nccn4)c(Cl)c3)c2C(F)(F)F)c2ccccc12 (stereo not drawn) [Cpd 368, N-(5-chloro-6-(2H-1,2,3-triazol-2-yl)pyridin-3-yl)-1-(1-(1-ethoxyethyl)isoquinolin-4-yl)-5-(trifluoromethyl)-1H-pyrazole-4-carboxamide] | 170 nM | 331 nM | 79 nM |
| O=C(Nc1cnc(-c2cn[nH]n2)c(Cl)c1)c1cnn(-c2cccc3ncccc23)c1C(F)(F)F [Cpd 309, N-(5-chloro-6-(2H-1,2,3-triazol-4-yl)pyridin-3-yl)-1-(quinolin-5-yl)-5-(trifluoromethyl)-1H-pyrazole-4-carboxamide] | 151 nM | 55 nM | 117 nM |
| Cc1nc(-n2nccn2)c(Cl)cc1NC(=O)c1cnn(-c2cncc3sccc23)c1C(F)(F)F [Cpd 321, N-(5-chloro-2-methyl-6-(2H-1,2,3-triazol-2-yl)pyridin-3-yl)-1-(thieno[2,3-c]pyridin-4-yl)-5-(trifluoromethyl)-1H-pyrazole-4-carboxamide] | 66 nM | 21 nM | 49 nM |
| N#Cc1cc(NC(=O)c2cnn(-c3ccnc4nccn34)c2C(F)(F)F)cnc1-n1nccn1 [Cpd 250, N-(5-cyano-6-(2H-1,2,3-triazol-2-yl)pyridin-3-yl)-1-(imidazo[1,2-a]pyrimidin-5-yl)-5-(trifluoromethyl)-1H-pyrazole-4-carboxamide] | 269 nM | 316 nM | 407 nM |

The remaining lines, values ahead:

| IC50 [1] | IC50 [2] | IC50 [3] | Structure (SMILES) |
| --- | --- | --- | --- |
| 589 nM | 120 nM | 724 nM | O=C(Nc1cnc(-n2nccn2)c(Cl)c1)c1cnn(-c2noc3ccccc23)c1C(F)(F)F [Cpd 284, 1-(benzo[d]isoxazol-3-yl)-N-(5-chloro-6-(2H-1,2,3-triazol-2-yl)pyridin-3-yl)-5-(trifluoromethyl)-1H-pyrazole-4-carboxamide] |
| 40 nM | 117 nM | 16 nM | CNc1ncc(-n2ncc(C(=O)Nc3cnc(-n4nccn4)c(Cl)c3)c2C(F)(F)F)c2cccc(F)c12 [Cpd 324, N-(5-chloro-6-(2H-1,2,3-triazol-2-yl)pyridin-3-yl)-1-(8-fluoro-1-(methylamino)isoquinolin-4-yl)-5-(trifluoromethyl)-1H-pyrazole-4-carboxamide] |
| 447 nM | 10 nM | 339 nM | COc1ccc2c(-n3ncc(C(=O)Nc4cnc(-n5nccn5)c(Cl)c4)c3C(F)(F)F)cccc2n1 [Cpd 420, N-(5-chloro-6-(2H-1,2,3-triazol-2-yl)pyridin-3-yl)-1-(2-methoxyquinolin-5-yl)-5-(trifluoromethyl)-1H-pyrazole-4-carboxamide] |
| 229 nM | 112 nM | 204 nM | O=C(Nc1cnc(-n2nccn2)c(Cl)c1)c1cnn(-c2cnc(Cl)c3ccccc23)c1C(F)(F)F [Cpd 285, N-(5-chloro-6-(2H-1,2,3-triazol-2-yl)pyridin-3-yl)-1-(1-chloroisoquinolin-4-yl)-5-(trifluoromethyl)-1H-pyrazole-4-carboxamide] |
| 331 nM | 871 nM | 240 nM | O=C(Nc1cnc(-n2nccn2)c(Cl)c1)c1cnn(-c2cccc3cncn23)c1C(F)(F)F [Cpd 233, N-(5-chloro-6-(2H-1,2,3-triazol-2-yl)pyridin-3-yl)-1-(imidazo[1,5-a]pyridin-5-yl)-5-(trifluoromethyl)-1H-pyrazole-4-carboxamide] |
| 2190 nM | 302 nM | 2240 nM | COc1cc(NC(=O)c2cnn(-c3cccc4ncccc34)c2C(F)(F)F)cnc1-n1nccn1 [Cpd 251, N-(5-methoxy-6-(2H-1,2,3-triazol-2-yl)pyridin-3-yl)-1-(quinolin-5-yl)-5-(trifluoromethyl)-1H-pyrazole-4-carboxamide] |
| 309 nM | 501 nM | 339 nM | Nc1ccc2c(-n3ncc(C(=O)Nc4cnc(-n5nccn5)c(Cl)c4)c3C(F)(F)F)cccc2n1 [Cpd 331, 1-(2-aminoquinolin-5-yl)-N-(5-chloro-6-(2H-1,2,3-triazol-2-yl)pyridin-3-yl)-5-(trifluoromethyl)-1H-pyrazole-4-carboxamide] |
